Measurements published in patent US20100173331A1, “NOVEL NOTCH-ORIGIN POLYPEPTIDES AND BIOMARKERS AND REAGENTS USING THE SAME” (priority 2002, published 2010).

Biological target: T1, presenilin (Homo sapiens, UniProt P49768)
T1 construct: endogenous in cells; probably K293
Assay: Pulse-chase of cells stably expressing F-NEXT with or without γ-secretase inhibitor; immunoprecipitation/SDS-PAGE of media (Nβ release) and lysates (NICD)
Type: cell-based
Conditions: 1 μM inhibitor, 1 hour pulse, 2-hour chase
Description: Human embryonic kidney 293 (K293), N2a and COS cells were cultured in DMEM supplemented with 10% fetal bovine serum, 1% penicillin/streptomycin, and 200 μg/ml zeocin (to select for PS1 expression), and/or 100 μg/ml hygromycin (to select for NΔE and F-NEXT expression). The K293 can stably express wild-type PS1, PS1 L286V, or PS1 D385N (Okochi et al, 2000, Kulic et al, 2000, Wolfe et al., 1999). The transfection with NΔE or F-NEXT was performed by means of a product named Lipofectamine 2000 (Invitrogen).
To determine NΔE N-terminal fragment (NTF: Nβ) release from NΔE expressing cells, K293 cells stably transfected with NΔE or NICD were grown to confluence in a 10 cm dish. The cells were then metabolically pulse-labeled for 2 hours with 300 μCi [^3H] amino acids (tritiated amino acid mixture, Amersham) in Earle's Balanced Salt Solution supplemented with MEM Vitamine Solution (Gibco) and several cold amino acids, followed by a 6-hour chase by 10% FCS/DMEM. To examine Nβ release, cells expressing F-NEXT were, at first, starved of methinine for 40 min with methionine-free media and then pulse-labeled for 1 hour with 400 μCi [^35S] amino acid mixture (Redivue Promix, Amersham) in methionine-free DMEM, followed by chasing for various time periods with the chase media containing 10% FCS/DMEM supplemented with excess cold methionine. […]

NICD band in cell lysates (S3 cleavage), immunoprecipitated with 9E10 (FIG. 5B lower panel): hardly visible | Nβ release to culture media (S4 cleavage), immunoprecipitated with M2-agarose (FIG. 5B upper panel): decreased drastically
Structure (SMILES): CC(C)C[C@H](NC(=O)[C@H](Cc1ccccc1)C[C@@H](O)[C@H](Cc1ccccc1)NC(=O)OC(C)(C)C)C(=O)N[C@@H](Cc1ccccc1)C(N)=O [L685,458, [(2R,4R,5S)-2-Benzyl-5-(Boc-amino)-4-hydroxy-6-phenyl-hexanoyl]-Leu-Phe-NH2]
